From patent US11103493B2, “Substituted pyridinyl compounds as indoleamine 2,3-dioxygenase (IDO) inhibitors” (Merck Sharp & Dohme Corp., priority 2017, dated 2021) come the findings set out here.

Experiment [1] has as its target T1, IDO1 (Homo sapiens, UniProt P14902). Briefly: IDO1 Cellular Assay in HeLa Cells Stimulated with IFNγ. The note with it: IFNγ 100 ng/mL, 300 uM L-tryptophan, about 48 hours incubation, fluorescence readout, read-out: IDO1 HeLa Cell Assay, IC50. It counts as cell-based. How it is done:
IDO1 Cellular Assay in HeLa Cells Stimulated with IFNγ
HeLa cells were cultured in complete HeLa culture medium (90% EMEM, 10% heat-inactivated fetal bovine serum) and expanded to about 1×10^9 cells. The cells were then collected and frozen down at 1×10^7 cells/vial in 1 mL frozen medium (90% complete HeLa culture medium, 10% DMSO).
Compounds to be tested were serially diluted in ten 3-fold steps in DMSO starting from 10 mM DMSO stocks in Echo low volume plate(s).
Frozen HeLa cells were thawed and transferred into HeLa assay medium (99% complete HeLa culture medium, 1% Pen/Strep) with 20 mL medium/vial of cells. The cells were spun down at 250 g in a table top centrifuge for 5 min and suspended in same volume of HeLa assay medium. The cells were then counted and adjusted to a density of 2×10^5 cells/mL in HeLa assay medium. Sterile L-tryptophan were added to the cells with final concentration of 300 uM L-tryptophan. A small aliquot (2 mL/plate) of HeLa cells were set aside and were not treated with IFNγ, to serve as the Max-E control.
HeLa cells with and without IFNγ were dispensed to the respective wells of 384-well assay plates containing the compounds. The plates were incubated for about 48 hours at a 37° C., 5% CO2 incubator. Afterwards, 12 μL of 0.5 M methyl isonipecotate in dimethyl sulfoxide were added into each well and the plates were sealed and incubated at 37° C. without CO2 overnight. The plates were centrifuged for 1 min at 200×g. The resulting fluorescence was measured in a Spectramax plate reader (Molecular Devices) with a 400 nm excitation filter and a 510 nm emission filter.
Potencies were calculated by […] least squares fit to the four parameter logistic IC50 equation.

Experiment [2] has as its target T1, IDO1. Briefly: IDO1 Human Whole Blood Assay. The format is cell-based. The note with it: LPS and IFNγ 100 ng/mL, 18 h, kynurenine by LC/MS/MS. The procedure:
IDO1 Human Whole Blood Assay
Compounds to be tested were serially diluted in ten 3-fold steps in DMSO starting from 10 mM. 3 μL of compound dilutions or DMSO alone were then dispensed from the dilution plate into a polypropylene 96-well assay plate containing 97 μL of RPMI medium using an Echo 555 acoustic liquid handler (Labcyte). LPS and IFNγ was prepared in RPMI medium to a 10× of final conc. (1000 ng/mL), final concentration is 100 ng/mL.
Human whole blood was drawn in sodium heparin coated tubes from healthy internal donors. 240 μL of blood was transferred to each of the wells of a v-bottom 96 well plate. 30 μL of compound was transferred from intermediate dilution plate, and incubated for 15 min. 30 μL from stimulants was then transferred to blood and mixed thoroughly. Plate was covered with breathable membrane and incubated at 37° C. for overnight (18 h).
On day 2, isotope labeled standard solutions of kunurenine and tryptophan was made in water at 10× concentration and 30 μL was added to the blood at […] concentration. The assay plates were centrifuged at 300×G for 10 min with no brake to separate plasma from red blood cells. 60 μL of plasma samples was removed without disturbing red blood cells. Plasma was diluted with RPMI in 1:1 ratio and proteins were precipitated out with two volumes of Acetonitrile. The plates were centrifuged at 4000×G for 60 min. 20 μL of supernatant was carefully transferred to a 384 well plate containing 40 μL of 0.1% formic acid in water and analyzed by LC/MS/MS.
LC/MS/MS analyses were performed using Thermo Fisher's LX4-TSQ Quantum Ultra system. This system consists of four Agilent binary high-performance liquid chromatography (HPLC) pumps and a TSQ Quantum Ultra triple quadrupole MS/MS instrument. For each sample, 5 μL were injected onto an Atlantis T3 column (2.1 mm×150 mm, 3 μm particle size) from Waters. The mobile phase gradient pumped at 0.8 mL/min was used to elute the analytes from the column at 25° C. The elution started at 0% B increasing linearly to 25% B at 6.5 min, holding at 25% for 1 min, re-equilibrating to 10 min. Mobile phase A consisted of 0.1% formic acid in water. Mobile phase B consisted of 0.1% of formic acid in acetonitrile. Data was acquired in positive mode using a HESI interface. The operational parameters for the TSQ Quantum Ultra instrument were a spray voltage of 4000 V, capillary temperature of 380° C., vaporizer temperature 400° C., shealth gas 60 arbitrary units, Aux gas 20 arbitrary units, tube lens 85 and collision gas 1.2 mTorr. SRM chromatograms of kynurenine (QI: 209.2>Q3:94.0) and internal standard (QI: 215.3>Q3:98.2) were collected for 90 sec. The peak area was integrated by Xcalibur Quan software. The ratios between the kynurenine generated in the reaction and 2D6-Kynurenine spiked-in internal standard were used to generate percentage inhibition and IC50 values. Compounds were titrated and IC50's were calculated by 4 parameter sigmoidal curve fitting formula.

T1 sequence (P14902 whole entry): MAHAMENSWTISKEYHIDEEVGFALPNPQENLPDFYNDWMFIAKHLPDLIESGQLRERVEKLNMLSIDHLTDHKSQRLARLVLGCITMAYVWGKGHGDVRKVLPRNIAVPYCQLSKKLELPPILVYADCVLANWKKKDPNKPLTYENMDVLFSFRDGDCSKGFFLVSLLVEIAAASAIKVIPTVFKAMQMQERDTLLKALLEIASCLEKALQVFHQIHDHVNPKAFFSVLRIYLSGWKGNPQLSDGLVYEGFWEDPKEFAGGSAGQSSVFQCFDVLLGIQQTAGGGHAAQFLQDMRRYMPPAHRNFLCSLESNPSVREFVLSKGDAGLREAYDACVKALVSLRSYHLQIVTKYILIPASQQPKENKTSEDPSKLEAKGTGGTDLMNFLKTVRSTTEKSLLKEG

For the compound `O=C(Nc1ccc(C2(c3nc4ncc(Br)cc4[nH]3)CCC2)cn1)c1cccc(Cl)c1` [Ex. 1, N-(5-(1-(6-bromo-1H-imidazo[4,5-b]pyridin-2-yl)cyclobutyl)pyridin-2-yl)-3-chlorobenzamide], the values for the 50% inhibitory concentration (IC50) at IDO1 [1] and at IDO1 [2] were 10.1 nM and 159 nM, respectively.
Regarding `N#Cc1cnc2nc(C3(c4ccc(NC(=O)c5cccc(Cl)c5)nc4)CCC3)[nH]c2c1` [Ex. 2, 3-Chloro-N-(5-(1-(6-cyano-1H-imidazo[4,5-b]pyridin-2-yl)cyclobutyl)pyridin-2-yl)benzamide], the IC50 (commonly the concentration that gives 50% inhibition) at IDO1 [1] came out at 13.6 nM; on IDO1 [2], 387 nM.
For `O=C(Nc1ccc(C2(c3nc4ccccc4[nH]3)CCC2)cn1)c1cccc(Cl)c1` [Ex. 3, N-(5-(1-(1H-benzo[d]imidazol-2-yl)cyclobutyl)pyridin-2-yl)-3-chlorobenzamide], the IC50 on IDO1 [1] came to 6.87 nM; against IDO1 [2] it was 429 nM.
Consider `N#Cc1cnc2nc(C3(c4ccc(NC(=O)c5cncc(F)c5)nc4)CCC3)[nH]c2c1` [Ex. 4, N-(5-(1-(6-cyano-1H-imidazo[4,5-b]pyridin-2-yl)cyclobutyl)pyridin-2-yl)-5-fluoronicotinamide], for which the IC50 on IDO1 [1] worked out at 144 nM.
The same measure, in the same setting: next, `N#Cc1cnc2[nH]c(C3(c4ccc(NC(=O)c5cccc(Cl)c5)nc4)CCC3)cc2c1` [Ex. 6, 3-Chloro-N-(5-(1-(5-cyano-1H-pyrrolo[2,3-b]pyridin-2-yl)cyclobutyl)pyridin-2-yl)benzamide]: 633 nM; `Cc1cccc2nc(C3(c4ccc(NC(=O)c5cccc(Cl)c5)nc4)CCC3)[nH]c12` [Ex. 11, 3-chloro-N-{5-[1-(7-methyl-1H-benzimidazol-2-yl)cyclobutyl]pyridin-2-yl}benzamide]: 10.2 nM; `CC(C)(C)c1ccc2nc(C3(c4ccc(NC(=O)c5cccc(Cl)c5)nc4)CCC3)[nH]c2c1` [Ex. 12, N-{5-[1-(6-tert-butyl-1H-benzimidazol-2-yl)cyclobutyl]pyridin-2-yl}-3-chlorobenzamide]: 433 nM.
The same measure, in the same setting: next, `COc1ccc2nc(C3(c4ccc(NC(=O)c5cccc(Cl)c5)nc4)CCC3)[nH]c2c1` [Ex. 14, 3-chloro-N-{5-[1-(6-methoxy-1H-benzimidazol-2-yl)cyclobutyl]pyridin-2-yl}benzamide]: 5.62 nM; `COc1cccc2[nH]c(C3(c4ccc(NC(=O)c5cccc(Cl)c5)nc4)CCC3)nc12` [Ex. 15, 3-chloro-N-{5-[1-(4-methoxy-1H-benzimidazol-2-yl)cyclobutyl]pyridin-2-yl}benzamide]: 10.1 nM; `O=C1COc2cc3[nH]c(C4(c5ccc(NC(=O)c6cccc(Cl)c6)nc5)CCC4)nc3cc2N1` [Ex. 18, 3-chloro-N-{5-[1-(7-oxo-3,6,7,8-tetrahydroimidazo[4,5-g][1,4]benzoxazin-2-yl)cyclobutyl]pyridin-2-yl}benzamide]: 132 nM.
For `O=C(Nc1ccc(C2(c3nc4cc(-n5cnnn5)ccc4[nH]3)CCC2)cn1)c1cccc(Cl)c1` [Ex. 20, 3-chloro-N-(5-{1-[5-(1H-tetrazol-1-yl)-1H-benzimidazol-2-yl]cyclobutyl}pyridin-2-yl)benzamide], the IC50 at IDO1 [1] was 262 nM.
For the compound `O=C(Nc1ccc(C2(c3nc4ccc(OC(F)(F)F)cc4[nH]3)CCC2)cn1)c1cccc(Cl)c1` [Ex. 22, 3-chloro-N-(5-{1-[6-(trifluoromethoxy)-1H-benzimidazol-2-yl]cyclobutyl}pyridin-2-yl)benzamide], the IC50 at IDO1 [1] turned out to be 14.1 nM.
On the same count and under the same terms, next, `Cc1cc2nc(C3(c4ccc(NC(=O)c5cccc(Cl)c5)nc4)CCC3)[nH]c2cc1C` [Ex. 26, 3-chloro-N-{5-[1-(5,6-dimethyl-1H-benzimidazol-2-yl)cyclobutyl]pyridin-2-yl}benzamide]: 9.66 nM.
On the same count and under the same terms, next, `N#Cc1cccc(C(=O)Nc2ccc(C3(c4nc5cc(C#N)cnc5[nH]4)CCC3)cn2)c1` [Ex. 29, 3-cyano-N-{5-[1-(6-cyano-3H-imidazo[4,5-b]pyridin-2-yl)cyclobutyl]pyridin-2-yl}benzamide]: 46 nM; `O=C(Nc1ccc(C2(c3nc4ccccc4n3CCO)CCC2)cn1)c1cccc(Cl)c1` [Ex. 31, 3-Chloro-N-(5-(1-(1-(2-hydroxyethyl)-1H-benzo[d]imidazol-2-yl)cyclobutyl)pyridin-2-yl)benzamide]: 200 nM.
`COC(=O)c1cccc2nc(C3(c4ccc(NC(=O)c5cccc(C#N)c5)nc4)CCC3)[nH]c12` [Ex. 35, Methyl 2-(1-(6-(3-cyanobenzamido)pyridin-3-yl)cyclobutyl)-1H-benzo[d]imidazole-7-carboxylate]: the IC50 on IDO1 [1] turned out to be 383 nM.
As to `N#Cc1cccc(C(=O)Nc2ccc(C3(c4nc5cccc(C(=O)O)c5[nH]4)CCC3)cn2)c1` [Ex. 36, 2-(1-(6-(3-Cyanobenzamido)pyridin-3-yl)cyclobutyl)-1H-benzo[d]imidazole-7-carboxylic acid], the IC50 at IDO1 [1] was 10000 nM.
For `COC(c1ccc(NC(=O)c2cccc(C#N)c2)nc1)c1nc2cc(C(F)(F)F)cnc2[nH]1` (stereo not drawn) [Ex. 39, 3-Cyano-N-(5-(methoxy(6-(trifluoromethyl)-3H-imidazo[4,5-b]pyridin-2-yl)methyl)pyridin-2-yl)benzamide], the IC50 at IDO1 [1] came out at 121 nM.
The same measure, in the same setting: next, `CO[C@@H](c1ccc(NC(=O)c2cccc(C#N)c2)nc1)c1nc2cc(C(F)(F)F)cnc2[nH]1` [Ex. 40, (S)-3-cyano-N-(5-(methoxy(6-(trifluoromethyl)-3H-imidazo[4,5-b]pyridin-2-yl)methyl)pyridin-2-yl)benzamide]: 94.8 nM; `CO[C@H](c1ccc(NC(=O)c2cccc(C#N)c2)nc1)c1nc2cc(C(F)(F)F)cnc2[nH]1` [Ex. 41, (R)-3-cyano-N-(5-(methoxy(6-(trifluoromethyl)-3H-imidazo[4,5-b]pyridin-2-yl)methyl)pyridin-2-yl)benzamide]: 263 nM; `N#Cc1cccc(C(=O)Nc2ccc(C(O)c3nc4cc(C(F)(F)F)cnc4[nH]3)cn2)c1` (stereo not drawn) [Ex. 42, 3-Cyano-N-(5-(hydroxy(6-(trifluoromethyl)-3H-imidazo[4,5-b]pyridin-2-yl)methyl)pyridin-2-yl)benzamide]: 5910 nM.
Still for that read-out and setting: next, `N#Cc1cccc(C(=O)Nc2ccc([C@H](O)c3nc4cc(C(F)(F)F)cnc4[nH]3)cn2)c1` [Ex. 43, (S)-3-cyano-N-(5-(hydroxy(6-(trifluoromethyl)-3H-imidazo[4,5-b]pyridin-2-yl)methyl)pyridin-2-yl)benzamide]: 3860 nM.
`N#Cc1cccc(C(=O)Nc2ccc([C@@H](O)c3nc4cc(C(F)(F)F)cnc4[nH]3)cn2)c1` [Ex. 44, (R)-3-cyano-N-(5-(hydroxy(6-(trifluoromethyl)-3H-imidazo[4,5-b]pyridin-2-yl)methyl)pyridin-2-yl)benzamide]: the IC50 at IDO1 [1] was found to be 6220 nM.
The same measure, in the same setting: next, `O=C(Nc1ccc(C2(c3nc4c([nH]3)CCCC4)CCC2)cn1)c1cccc(Cl)c1` [Ex. 48, 3-Chloro-N-(5-(1-(4,5,6,7-tetrahydro-1H-benzo[d]imidazol-2-yl)cyclobutyl)pyridin-2-yl)benzamide]: 99.7 nM.
